These results are taken from US20090325964A1, “Piperazine Metabotropic Glutamate Receptor 5 (MGLUR5) Negative Allosteric Modulators For Anxiety/Depression” (Wyeth, priority 2008, published 2009).

The target of the experiment is T1, rat mGluR5 receptor (Rattus norvegicus, UniProt P31424).
T1 construct: expressed in transfected cells; host or cells: HEK-293
The experiment can be described thus: [3H]-MPEP displacement binding assay, HEK-293 cell membranes expressing rat mGluR5. Conditions: for Ki: read-out: Median Ki. On the procedure:
MGluR5 expressing HEK-293 cells were scraped off a plate, transferred to centrifuge tubes and washed twice by centrifugation (2000 rpm for 10 minutes, at 4° C.) in buffer (50 mM Tris pH 7.5). The resulting pellets were aliquoted and stored at minus 80° C. On the day of assay, the cells were thawed on ice and re-suspended in buffer. The binding assay was performed in a 96 well microtiter plate in a total volume of […]. Non-specific binding was determined in the presence of 10 μM MPEP. The binding reaction included a final radioligand [^3H]-MPEP concentration of 4 nM and 12-25 μg membrane protein per well. Following a 60 minute incubation at room temperature, the reaction was terminated by the addition of ice cold buffer and rapid filtration through a GF/B filter that had been presoaked for 30 minutes in 0.5% PEI. Compounds were initially tested in a single point assay to determine percent inhibition at 10 μM.
Percent inhibition and Ki values were generated by GraphPad Prism and Excel Fit. IC50 values were calculated using GraphPad by fitting to a 1 or 2 site-binding model.
where [L] is the concentration of free radioligand and Kd is the dissociation constant of radioligand for the receptor.

The mark [1] stands for this setting: single point, @ 10 μM compound, Table 3A, read-out: PCT INHIB (%) @ 10 μM.
Where [2] appears, read: 1 h, single point, @ 10 μm compound, Table 1A, read-out: PCT INHIB (%) @ 10 μm.
The mark [3] stands for this setting: @ 10 μM compound, Biological Activity, Table 2A, read-out: PCT INHIB (%) @ 10 μM.
[4] abbreviates: [3H]-MPEP displacement, rat mGluR5.

Like-named read-outs stand apart in the source and are kept apart here.

T1 sequence (P31424 21-1203): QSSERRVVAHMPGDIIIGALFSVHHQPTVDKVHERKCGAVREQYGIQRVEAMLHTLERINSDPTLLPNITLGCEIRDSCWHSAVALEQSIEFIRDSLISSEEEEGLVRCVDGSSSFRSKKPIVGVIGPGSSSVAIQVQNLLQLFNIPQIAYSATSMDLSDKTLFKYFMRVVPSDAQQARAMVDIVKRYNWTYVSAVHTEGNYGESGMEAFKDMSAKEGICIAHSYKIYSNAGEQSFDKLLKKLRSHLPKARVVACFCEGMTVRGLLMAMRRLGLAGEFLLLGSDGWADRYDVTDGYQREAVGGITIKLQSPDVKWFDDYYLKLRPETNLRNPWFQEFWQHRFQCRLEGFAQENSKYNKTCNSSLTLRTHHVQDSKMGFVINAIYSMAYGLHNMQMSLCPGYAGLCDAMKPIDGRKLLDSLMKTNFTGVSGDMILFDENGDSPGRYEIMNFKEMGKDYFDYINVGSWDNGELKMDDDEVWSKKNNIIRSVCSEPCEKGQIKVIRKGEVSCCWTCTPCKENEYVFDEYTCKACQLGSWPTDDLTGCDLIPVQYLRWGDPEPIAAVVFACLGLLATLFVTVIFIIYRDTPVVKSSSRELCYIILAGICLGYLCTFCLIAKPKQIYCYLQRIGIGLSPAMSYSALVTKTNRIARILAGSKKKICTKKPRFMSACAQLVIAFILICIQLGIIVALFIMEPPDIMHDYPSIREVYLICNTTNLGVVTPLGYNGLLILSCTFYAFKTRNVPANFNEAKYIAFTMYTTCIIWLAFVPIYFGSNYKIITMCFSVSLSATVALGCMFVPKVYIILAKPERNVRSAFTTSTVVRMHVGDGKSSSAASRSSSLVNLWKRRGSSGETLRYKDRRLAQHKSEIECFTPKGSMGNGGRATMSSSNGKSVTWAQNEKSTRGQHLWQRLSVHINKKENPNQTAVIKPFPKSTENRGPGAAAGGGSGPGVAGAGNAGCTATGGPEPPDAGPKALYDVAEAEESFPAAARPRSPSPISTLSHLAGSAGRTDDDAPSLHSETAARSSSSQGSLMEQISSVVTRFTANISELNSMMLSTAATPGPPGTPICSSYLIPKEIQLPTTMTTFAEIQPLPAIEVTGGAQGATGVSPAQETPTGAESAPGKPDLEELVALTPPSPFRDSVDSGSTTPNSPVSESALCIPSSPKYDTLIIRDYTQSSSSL

As to `COc1ccc(C(=O)N2CCN(c3ccccn3)CC2)cc1OCc1cccc(Br)c1` [Compound 159, 1-{3-[(3-bromobenzyl)oxy]-4-methoxybenzoyl}-4-pyridin-2-ylpiperazine], the inhibition at 10 µM under setting [1] was 26%.
Turning to `COc1cccc(C#Cc2cc(C(=O)N3CCN(c4ccccn4)CC3)ccc2OC)c1` [Compound 17, 1-{4-methoxy-3-[(3-methoxyphenyl)ethynyl]benzoyl}-4-pyridin-2-ylpiperazine], the Ki was 51 nM. In addition, the inhibition at 10 µM under setting [2] is 91%.
As for `COc1cccnc1N1CCN(C(=O)c2cccc(C#Cc3ccccn3)c2)CC1` [Compound 101, 1-(3-methoxypyridin-2-yl)-4-[3-(pyridin-2-ylethynyl)benzoyl]piperazine], the inhibition at 10 µM under setting [3] was 52%. Further, the Ki (Biological Activity, Table 2A) stood at 2350 nM.
As to `COc1ccc(C(=O)N2CCN(c3cnccn3)CC2)cc1C#Cc1cccc(F)c1` [Compound 61, 2-(4-{3-[(3-fluorophenyl)ethynyl]-4-methoxybenzoyl}piperazin-1-yl)pyrazine], the inhibition constant Ki was 21.7 nM.
Consider `O=C(c1cncc(C#Cc2ccccc2)c1)N1CCN(c2ccc(C(F)(F)F)cn2)CC1` [Compound 132, 1-{[5-(phenylethynyl)pyridin-3-yl]carbonyl}-4-[5-(trifluoromethyl)pyridin-2-yl]piperazine], for which the inhibition at 10 µM under setting [3] is 0%.
In the case of “1-(2-chlorobenzyl)-4-[4-methoxy-3-(pyridin-2-ylethynyl)benzoyl]piperazin-2-one [Compound 332]”, the inhibitory constant (Ki) under setting [4] came out at 32 nM.
Turning to `N#Cc1cccc(OCc2cccc(C(=O)N3CCN(c4ccccn4)CC3)c2)c1` [Compound 165, 3-({3-[(4-pyridin-2-ylpiperazin-1-yl)carbonyl]benzyl}oxy)benzonitrile], the Ki ([3H]-MPEP 4 nM, Table 4A) came out at 2970 nM.
Take `O=C(c1cccc(OCc2cccc(Cl)c2)c1)N1CCN(c2ccccn2)CC1` [Compound 154, 1-{3-[(3-chlorobenzyl)oxy]benzoyl}-4-pyridin-2-ylpiperazine]: the inhibition at 10 µM under setting [1] came to 36%.
In the case of `O=C(c1cccc(C#Cc2ccccc2)c1)N1CCN(c2ccc(C(F)(F)F)cn2)CC1` [Compound 108, 1-[3-(phenylethynyl)benzoyl]-4-[5-(trifluoromethyl)pyridin-2-yl]piperazine], the inhibition at 10 µM under setting [3] came to 0%.
`Cc1cccc(N2CCN(C(=O)c3cccc(C#Cc4ccccn4)c3)CC2)n1` [Compound 147, 1-(6-methylpyridin-2-yl)-4-[3-(pyridin-2-ylethynyl)benzoyl]piperazine]: the inhibition at 10 µM under setting [3] was found to be 80%. Also, the inhibition constant Ki (Biological Activity, Table 2A) came to 3020 nM.
For the molecule `COc1ccc(C(=O)N2CCN(c3ccccn3)CC2)cc1OCc1ccccc1` [Compound 158, 1-[3-(benzyloxy)-4-methoxybenzoyl]-4-pyridin-2-ylpiperazine], the inhibition at 10 µM under setting [1] was found to be 0%.
`COc1ccc(C(=O)N2CCN(c3ccccn3)C(=O)C2)cc1C#Cc1ccccn1` [Compound 330, 4-{[4-methoxy-3-(pyridin-2-ylethynyl)phenyl]carbonyl}-1-pyridin-2-ylpiperazin-2-one]: the Ki under setting [4] was 122 nM.
On to `Cc1ccccc1C#Cc1cccc(C(=O)N2CCN(c3ccccn3)CC2)c1` [Compound 4, 1-{3-[(2-methylphenyl)ethynyl]benzoyl}-4-pyridin-2-ylpiperazine], for which the inhibition at 10 µM under setting [2] came out at 0%.
On to `Cc1cnc(C)c(N2CCN(C(=O)c3cccc(C#Cc4ccccn4)c3)CC2)n1` [Compound 103, 2,5-dimethyl-3-{4-[3-(pyridin-2-ylethynyl)benzoyl]piperazin-1-yl}pyrazine], for which the inhibition at 10 µM under setting [3] turned out to be 16%.
On to `Cn1cncc1C#Cc1cccc(C(=O)N2CCN(c3ccccn3)CC2)c1` [Compound 7, 1-{3-[(1-methyl-1H-imidazol-5-yl)ethynyl]benzoyl}-4-pyridin-2-ylpiperazine], for which the inhibition at 10 µM under setting [2] was determined as 0%.
As for `COc1ccc(C(=O)N2CCN(c3ccccn3)CC2)cc1OCc1cccc(C#N)c1` [Compound 162, 3-({2-methoxy-5-[(4-pyridin-2-ylpiperazin-1-yl)carbonyl]phenoxy}methyl)benzonitrile], the inhibition at 10 µM under setting [1] was 0%.

By Ki is commonly meant the dissociation constant of the complex between target and ligand, obtained from inhibition or displacement.
